According to ChEMBL document CHEMBL1201862, “PubChem BioAssay data set” (2004):
Where a name gives a salt, the structure may show the parent alone.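 Where inhibition never reached the appropriate level, the endpoint shown equals the highest concentration tested. Otherwise, values were interpolated linearly from a five-concentration, 48-hour dose response in 96-well plates. At the GI50, growth is halved.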 Activity calls are given as the source filed them. Rule as the data show it: active = GI50 up to about 1.1 µM and inactive = higher.

What was measured:
Test in all cases: NCI tumour cell line growth inhibition, 48 h
[1] = system: HOP-92
[2] = system: M14
[3] = system: MDA-MB-231
[4] = system: Malme-3M
[5] = system: NCI-H460
[6] = system: NCI-H522
[7] = system: OVCAR-3
[8] = system: OVCAR-8
[9] = system: RXF 393
[10] = system: SK-MEL-5
[11] = system: SK-OV-3
[12] = system: SN12C
[13] = system: SR
[14] = system: T47D
[15] = system: U-251
[16] = system: UO-31
[17] = system: Hs-578T
[18] = system: TK-10
[19] = system: BT-549

SMILES	GI50 [1]	GI50 [2]	GI50 [3]	GI50 [4]	GI50 [5]	GI50 [6]	GI50 [7]	GI50 [8]	GI50 [9]	GI50 [10]	GI50 [11]	GI50 [12]	GI50 [13]	GI50 [14]	GI50 [15]	GI50 [16]	GI50 [17]	GI50 [18]	GI50 [19]
CN(C)CCOC(=O)COc1ccc(Cl)cc1 [CENTROPHENOXINE HYDROCHLORIDE]	> 100 µM (inactive)	> 100 µM (inactive)	> 100 µM (inactive)	> 100 µM (inactive)	> 100 µM (inactive)	> 100 µM (inactive)	> 100 µM (inactive)	> 100 µM (inactive)	> 100 µM (inactive)	> 100 µM (inactive)	> 100 µM (inactive)	> 100 µM (inactive)	> 100 µM (inactive)	> 100 µM (inactive)	> 100 µM (inactive)	> 100 µM (inactive)			
Cc1[nH]n(-c2nc(-c3ccccc3)cc(=O)[nH]2)c(=O)c1CCO	> 100 µM (inactive)	> 100 µM (inactive)	> 100 µM (inactive)	> 100 µM (inactive)	> 100 µM (inactive)		> 100 µM (inactive)	> 100 µM (inactive)	> 100 µM (inactive)	> 100 µM (inactive)	> 100 µM (inactive)	> 100 µM (inactive)		> 100 µM (inactive)	> 100 µM (inactive)	> 100 µM (inactive)	> 100 µM (inactive)	> 100 µM (inactive)	
CCOc1c(Cc2ccccc2)c(=O)n2c3ccccc3n3c(=O)n(C)c(=O)c1c23	> 100 µM (inactive)	> 100 µM (inactive)		> 100 µM (inactive)	> 100 µM (inactive)		> 100 µM (inactive)	> 100 µM (inactive)	> 100 µM (inactive)	> 100 µM (inactive)	> 100 µM (inactive)	> 100 µM (inactive)	> 100 µM (inactive)		> 100 µM (inactive)	> 100 µM (inactive)		> 100 µM (inactive)	
OC[C@@H]1CC#C/C=C\C#CC[C@@H]1CO	< 0.01 µM (active)	> 100 µM (inactive)		> 100 µM (inactive)			> 100 µM (inactive)	> 100 µM (inactive)	> 100 µM (inactive)	> 100 µM (inactive)	> 100 µM (inactive)				> 100 µM (inactive)	> 100 µM (inactive)		> 100 µM (inactive)	
OC(c1cc(C(O)(C(F)(F)F)C(F)(F)F)ncn1)(C(F)(F)F)C(F)(F)F	> 10 µM (inactive)	> 10 µM (inactive)	> 10 µM (inactive)	> 10 µM (inactive)	> 10 µM (inactive)	> 10 µM (inactive)	> 10 µM (inactive)	> 10 µM (inactive)	> 10 µM (inactive)	> 10 µM (inactive)	> 10 µM (inactive)	> 10 µM (inactive)	> 10 µM (inactive)	> 10 µM (inactive)	> 10 µM (inactive)	> 10 µM (inactive)	> 10 µM (inactive)	> 10 µM (inactive)	
CCN(CC)C(=O)c1cc([N+](=O)[O-])c(=O)n2c1[nH]c1ccccc12	> 100 µM (inactive)	> 100 µM (inactive)	> 100 µM (inactive)	> 100 µM (inactive)	> 100 µM (inactive)	> 100 µM (inactive)	> 100 µM (inactive)	> 100 µM (inactive)	> 100 µM (inactive)	> 100 µM (inactive)	> 100 µM (inactive)	> 100 µM (inactive)	> 100 µM (inactive)	> 100 µM (inactive)		> 100 µM (inactive)	> 100 µM (inactive)	> 100 µM (inactive)	
Cc1cc(OCc2nn(CN3CCN(C)CC3)c(=S)n2/N=C/c2ccc(-c3ccc(Cl)cc3Cl)o2)ccc1Cl	21 µM (inactive)	33.7 µM (inactive)	97.5 µM (inactive)		67.8 µM (inactive)	24.5 µM (inactive)	80 µM (inactive)	44 µM (inactive)	17.2 µM (inactive)	44.5 µM (inactive)	> 100 µM (inactive)			38 µM (inactive)	> 100 µM (inactive)	57.1 µM (inactive)	39.6 µM (inactive)	75.2 µM (inactive)	
CC1C(=O)N(C)C2(CO)C(=O)O[C@H](C)C12O (stereo partly drawn)	< 0.01 µM (active)	> 100 µM (inactive)		> 100 µM (inactive)			> 100 µM (inactive)	> 100 µM (inactive)	> 100 µM (inactive)	> 100 µM (inactive)	> 100 µM (inactive)		> 100 µM (inactive)		> 100 µM (inactive)	> 100 µM (inactive)		> 100 µM (inactive)	
O=C1c2ccccc2C(=O)N1CC1S(=O)(=O)OCCOS1(=O)=O	> 100 µM (inactive)	> 100 µM (inactive)	> 100 µM (inactive)	> 100 µM (inactive)	> 100 µM (inactive)	> 100 µM (inactive)	> 100 µM (inactive)	> 100 µM (inactive)	> 100 µM (inactive)	> 100 µM (inactive)	> 100 µM (inactive)	> 100 µM (inactive)	44.1 µM (inactive)	> 100 µM (inactive)	> 100 µM (inactive)	> 100 µM (inactive)	> 100 µM (inactive)	> 100 µM (inactive)	
O=C1ON=C2C3CC4CC12CC1(C3)C(=O)ON=C41	> 100 µM (inactive)	> 100 µM (inactive)	> 100 µM (inactive)	> 100 µM (inactive)	> 100 µM (inactive)	> 100 µM (inactive)	> 100 µM (inactive)	> 100 µM (inactive)	> 100 µM (inactive)	> 100 µM (inactive)		> 100 µM (inactive)	> 100 µM (inactive)		> 100 µM (inactive)	> 100 µM (inactive)			> 100 µM (inactive)
COc1cccc2nc3ccccc3nc12	33 µM (inactive)	> 100 µM (inactive)	67.6 µM (inactive)	> 100 µM (inactive)	39.8 µM (inactive)		91 µM (inactive)	23.8 µM (inactive)	39.3 µM (inactive)	54.8 µM (inactive)	> 100 µM (inactive)	71.4 µM (inactive)	44.1 µM (inactive)	76 µM (inactive)	55.5 µM (inactive)	36 µM (inactive)	> 100 µM (inactive)	66.1 µM (inactive)	
CCOC(=O)[C@@H]1ON2O[C@@H](OC3CCCCC3c3ccccc3)C[C@H]3OC(=O)[C@@H]1C32 (stereo partly drawn)	> 100 µM (inactive)	> 100 µM (inactive)	84.7 µM (inactive)		38.1 µM (inactive)	87.1 µM (inactive)	> 100 µM (inactive)	> 100 µM (inactive)	> 100 µM (inactive)	> 100 µM (inactive)	> 100 µM (inactive)	> 100 µM (inactive)	97.9 µM (inactive)	> 100 µM (inactive)	> 100 µM (inactive)	> 100 µM (inactive)	> 100 µM (inactive)	> 100 µM (inactive)	
C/N=C(\SC)N(C)c1nc(=[N+](C)C)ss1.[O-][Cl+3]([O-])([O-])[O-]	> 100 µM (inactive)	> 100 µM (inactive)				13.2 µM (inactive)		> 100 µM (inactive)	> 100 µM (inactive)	7.21 µM (inactive)	> 100 µM (inactive)	> 100 µM (inactive)	56 µM (inactive)		> 100 µM (inactive)	42.2 µM (inactive)		> 100 µM (inactive)	
